# Data as given in patent US10815272B2, “CD31 peptides” (INSTITUT NATIONAL DE LA SANTE ET DE LA RECHERCHE MEDICALE …, priority 2012, dated 2020).
# Where “and” joins values, the source holds several entries; their conditions need not be identical. Equal entries are not always repeated. Non-standard residues stand in square brackets, D forms with d. Residues, ends and D or L forms follow the SMILES beside them. No end group written: not given here.
# How the values were obtained:
# [1] = solubility comparison of peptides; format: physicochemical; conditions: for maximum soubility: in the minimal solvent
# Source text: (§1) The solubility, activity and stability (resistance to freezing/thawing) of the P8F and P8RI peptides were compared to previously used peptides comprising the membrane-proximal sequences of CD31.
# [2] = system: occlusive thrombus in apoE KO mice; assay: acute thrombosis model, ligation of the left common carotid artery in atherosclerotic apoE KO mice; format: in vivo
# Protocol: Atherosclerotic mice were treated with P8F at 2.5, 5 or 10 mg/kg/day, with aspirin as a positive control and vehicle as a negative control.
# The width of the columns is proportional to the number of mice included in each group (Aspirin=5, “2.5”=7, “5”=11, “10”=7, Vehicle=8). P<0.05 for all groups vs vehicle (Veh).
# The P8F sequence was also used in vivo (subcutaneous administration of different doses: 2.5, 5 and 10 mg/kg/d) in atherosclerotic mice (apoE KO, 35 weeks of age, male, chow diet) subjected to the ligation of the left common carotid artery (a model of acute thrombosis). Due to advanced age, most of the mice had already developed an atherosclerotic lesion close to the site where the ligation was performed.
# Jurkat T cells = assay: calcium mobilization test using Jurkat T cells after TCR stimulation; format: cell-based
# Protocol: Jurkat T cells were preincubated with the fluo 3-AM calcium probe and stimulated by cross-linking the TCR with anti-CD3 antibodies and secondary antibody F(ab′)2 fragments.
# Jurkat T cells (10×10^6/ml) were preincubated with the fluo 3-AM calcium probe and stimulated by cross-linking the TCR with anti-CD3 antibodies and secondary antibody F(ab′)2 fragments.
# Activity was determined using the calcium mobilization test using Jurkat T cells, as described above.
# [3] = system: human platelet aggregation; assay: platelet aggregation on collagen-coated microcapillaries under flow (whole blood perfusion); format: cell-based; conditions: soluble peptide, 1500 seconds^−1, first 5 minutes
# Protocol: The microcapillaries of Vena8 Fluoro+™ biochip (400 μm width×100 μm depth×20 mm length, Cellix) were coated with 2.5 mg/ml insoluble horse type I collagen overnight at 4° C. and then blocked with 0.1% HSA for 1 hour at room temperature. Human peripheral whole blood, anticoagulated with P-PACK (a direct thrombin inhibitor, non-chelating agent) was labeled with 5 μM DiOC6 for 10 minutes before perfusion with the Cellix pump at 1500 seconds^−1 through the coated capillaries. The interaction of platelets with the matrix was viewed in real time under a fluorescence microscope and was saved for off-line analysis. The surface covered by aggregated platelets was analyzed frame by frame (24 frames/s) over the first 5 minutes and expressed as coverage %.
# [4] = stability, resistance to repeated freeze-thaw cycles (loss of activity); format: physicochemical; conditions: number of cycles after which activity was diminished or abolished
# Protocol: as §1
# Stability was determined by subjecting the peptides to repeated freeze-thaw cycles and determining the number of cycles after which ED 50 was increased and/or biological activity abolished.
minimal solvent [1],solubility in water [1],maximum soubility [1] [mg/mL],Compound,other results
water,soluble in water,30.5,"CC(C)C[C@@H](NC(=O)[C@@H](C)NC(=O)[C@H]1CCCN1C(=O)[C@@H](Cc1c[nH]c2ccccc12)NC(=O)[C@H](N)CCCCN)C(=O)N[C@H](Cc1ccccc1)C(=O)N[C@@H](C(=O)N[C@H](CCCNC(=N)N)C(=O)O)C(C)C [P8RI, H-kwpalfvr-OH] (H-[dK][dW][dP][dA][dL][dF][dV][dR]-OH)",
,,,"CC(=O)Oc1ccccc1C(=O)O [aspirin, reference compound]",occlusive thrombus found ([2]; aspirin s.c. 150 mg/kg/d): No occlusive thrombus
water,soluble in water,28.1,H-RVFLAPWK-OH [P8F],"intracellular calcium mobilization (median fluorescence intensity of fluo-3AM probe) (Jurkat T cells; 60 μg/ml peptide, Jurkat cells, TCR stimulation with anti-CD3 + F(ab')2): delayed and reduced; EC50 (Jurkat T cells; Jurkat cells stimulated with antiCD3+Fab antibodies, read-out: ED 50 (minimal dose producing 50 percent of the maximum obtainable inhibition of intracellular calcium mobilization)): 25 µM; antithrombotic effect relative to reference drug ([2]; 5 mg/Kg/d s.c., vs aspirin 150 mg/kg/d s.c.): same extent of antithrombotic effect as the reference drug; occlusive thrombus found ([2]; 5 mg/ml group (so in the source)): No occlusive thrombus; number of sections showing an occlusive thrombus, out of 1000 sections/sample ([2]; P8F-treated mice vs vehicle): significantly lowered; appearance of an occlusive thrombus ([2]; s.c. 2.5, 5 and 10 mg/kg/d, all tested doses): effective in preventing the appearance of an occlusive thrombus; human platelet aggregation (surface coverage %) [3]: inhibit human platelet aggregation in a dose dependent manner; maximum freeze/thaw cycles [4]: 3 cycles"
"10% Acetonitrile, and 5% acetic acid",,15.9,"SMRTSPRSSTLAVRVFLAPWKK [P22 mouse, reference compound]",
"10% Acetonitrile, and 5% acetic acid",,8.1,"VRVFLAPWKK [PepReg, reference compound]",
